Measurements reported in patent US20070072912A1, “Alicyclic-amine-substituted 4-carboxamido-benzimidazoles as parp-inhibitors and antioxidants” (Cedars-Sinai Medical Center, priority 2003, published 2007).
Structures can show the parent of a compound that is named as a salt.

Biological target: T1, Poly-ADP-ribose polymerase (PARP enzyme) (Rattus norvegicus, UniProt P27008)
T1 construct: Poly-ADP-ribose polymerase was isolated from rat liver; from tissue; host or cells: rat liver
T1 sequence (P27008 whole entry): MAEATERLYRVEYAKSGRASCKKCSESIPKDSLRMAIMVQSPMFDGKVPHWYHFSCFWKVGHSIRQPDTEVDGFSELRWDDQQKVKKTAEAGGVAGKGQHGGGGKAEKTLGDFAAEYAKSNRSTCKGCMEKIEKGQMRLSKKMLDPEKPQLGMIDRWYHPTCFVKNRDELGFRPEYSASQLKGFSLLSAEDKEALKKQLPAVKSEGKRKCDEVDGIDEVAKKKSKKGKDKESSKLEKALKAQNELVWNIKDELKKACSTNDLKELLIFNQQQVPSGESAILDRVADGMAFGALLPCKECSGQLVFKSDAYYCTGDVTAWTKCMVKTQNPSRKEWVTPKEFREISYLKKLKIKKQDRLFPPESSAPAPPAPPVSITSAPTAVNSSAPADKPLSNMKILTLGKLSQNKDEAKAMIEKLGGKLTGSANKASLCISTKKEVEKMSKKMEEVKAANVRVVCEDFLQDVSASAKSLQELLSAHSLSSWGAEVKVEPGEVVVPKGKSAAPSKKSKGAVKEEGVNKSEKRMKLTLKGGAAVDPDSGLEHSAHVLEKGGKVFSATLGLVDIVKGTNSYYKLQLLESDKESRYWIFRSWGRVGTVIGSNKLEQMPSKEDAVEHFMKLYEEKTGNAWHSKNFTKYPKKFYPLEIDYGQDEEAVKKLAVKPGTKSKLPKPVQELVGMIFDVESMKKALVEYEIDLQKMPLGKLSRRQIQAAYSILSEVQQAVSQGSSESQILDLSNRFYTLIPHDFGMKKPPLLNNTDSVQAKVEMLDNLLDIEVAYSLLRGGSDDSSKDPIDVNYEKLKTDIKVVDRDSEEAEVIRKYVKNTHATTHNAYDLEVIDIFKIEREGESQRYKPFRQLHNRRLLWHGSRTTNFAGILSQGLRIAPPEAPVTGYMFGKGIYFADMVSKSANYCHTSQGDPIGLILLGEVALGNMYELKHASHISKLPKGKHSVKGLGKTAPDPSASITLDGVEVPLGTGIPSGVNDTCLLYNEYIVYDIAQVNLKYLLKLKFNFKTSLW
Assay: Inhibitory effect of benzimidazole derivatives on PARP enzyme in vitro ([3H]NAD+ incorporation)
Type: biochemical
Conditions: not given
Protocol: Assay to test inhibitory effects of benzimidazole derivatives on PARP enzyme in vitro.
The potential inhibitory effect of benzimidazole derivatives were tested in this assay system. The PARP activity was determined in 130 μl reaction mixture contained 100 mM Tris-HCl buffer, pH 8.0, 10 mM MgCl2, 10% glycerol, 1.5 mM DTT, 1 mM [Adenine-2,8-^3H] NAD^+ (4.500 cpm/nmol), 10 μg activated DNA and 10 μg histones. The incubation time was 15 minutes, and the reaction was stopped by addition of trichloro-acetic acid (8%). After addition of 0.5 mg albumine, precipitation was allowed to proceed for at least 20 minutes on ice, and the insoluble material was collected on a glass filter washed with 5% perchloric acid. The protein-bound radio-activity was determined by a LS-200 Beckman scintillation counter.
CC1(C)C=C(c2nc3c(C(N)=O)cccc3[nH]2)C(C)(C)N1[O] [Compound 1, 2-(1-oxyl-2,2,5,5-tetramethyl-2,5-dihydro-1H-pyrrol-3-yl)-1H-benzimidazole 4-carboxylic acid amide radical] gave an IC50 of 721 nM.
Work on CC1(C)C(Br)=C(c2nc3c(C(N)=O)cccc3[nH]2)C(C)(C)N1[O] [Compound 5, 2-(4-bromo-1-oxyl-2,2,5,5-tetramethyl-2,5-dihydro-1H-pyrrol-3-yl)-1H-benzimidazole 4-carboxylic acid amide radical] yielded an IC50 of 201 nM.
For CC1(C)C(c2ccccc2)=C(c2nc3c(C(N)=O)cccc3[nH]2)C(C)(C)N1[O] [Compound 7, 2-(1-oxyl-4-phenyl-2,2,5,5-tetramethyl-2,5-dihydro-1H-pyrrol-3-yl)-1H-benzimidazole 4-carboxylic acid amide radical], the IC50 was 1500 nM.
CC1(C)C(c2cccc(C(F)(F)F)c2)=C(c2nc3c(C(N)=O)cccc3[nH]2)C(C)(C)N1[O] [Compound 9, 2-[1-oxyl-2,2,5,5-tetramethyl-4-(3-trifluoromethyl-phenyl)-2,5-dihydro-1H-pyrrol-3-yl]-1H-benzimidazole 4-carboxylic acid amide radical] gave an IC50 of 149 nM.
Work on CC1(C)NC(C)(C)C(c2nc3c(C(N)=O)cccc3[nH]2)=C1c1cccc(C(F)(F)F)c1 [Compound 10, 2-[2,2,5,5-tetramethyl-4-(3-trifluoromethyl-phenyl)-2,5-dihydro-1H-pyrrol-3-yl]-1H-benzimidazole 4-carboxylic acid amide] yielded an IC50 of 133 nM.
For CC1(C)C=C(c2ccc(-c3nc4c(C(N)=O)cccc4[nH]3)cc2)C(C)(C)N1[O] [Compound 11, 2-[4-(1-oxyl-2,2,5,5-tetramethyl-2,5-dihydro-1H-pyrrol-3-yl)-phenyl]-1H-benzimidazole 4-carboxylic acid amide radical], the IC50 was 78 nM.
For CN1C(C)(C)C=C(c2nc3c(C(N)=O)cccc3[nH]2)C1(C)C [Compound 13, 2-(1,2,2,5,5-pentamethyl-2,5-dihydro-1H-pyrrol-3-yl)-1H-benzimidazole 4-carboxylic acid amide], the IC50 was 42 nM.
Work on CC1(C)C(c2nc3c(C(N)=O)cccc3[nH]2)=C(c2cccc3c2oc2ccccc23)C(C)(C)N1[O] [Compound 16] yielded an IC50 of 1800 nM.
For CC1(C)C=C(c2nc3c(C(N)=O)cccc3[nH]2)CC(C)(C)N1 [Compound 19, 2-(2,2,6,6-tetramethyl-1,2,3,6-tetrahydro-pyridin-4-yl)-1H-benzimidazole 4-carboxylic acid amide], the IC50 was 14 nM.
Compound CC1(C)C=C(COc2ccc(-c3nc4c(C(N)=O)cccc4[nH]3)cc2)C(C)(C)N1[O] [Compound 20, 2-[4-(1-oxyl-2,2,5,5-tetramethyl-2,5-dihydro-1H-pyrrol-3-yl-methoxy)-phenyl]-1H-benzimidazole 4-carboxylic acid amide radical] has an IC50 of 564 nM.
Compound COc1cc(-c2nc3c(C(N)=O)cccc3[nH]2)ccc1OCC1=CC(C)(C)N([O])C1(C)C [Compound 22, 2-[3-methoxy-4-(1-oxyl-2,2,5,5-tetramethyl-2,5-dihydro-1H-pyrrol-3-yl-methoxy)-phenyl]-1H-benzimidazole 4-carboxylic acid amide radical] has an IC50 of 472 nM.
Work on COc1cc(-c2nc3c(C(N)=O)cccc3[nH]2)ccc1OCC1=CC(C)(C)NC1(C)C [Compound 23, 2-[3-methoxy-4-(2,2,5,5-tetramethyl-2,5-dihydro-1H-pyrrol-3-yl-methoxy)-phenyl]-1H-benzimidazole 4-carboxylic acid amide] yielded an IC50 of 432 nM.
For CC1(C)c2cc(-c3nc4c(C(N)=O)cccc4[nH]3)sc2C(C)(C)N1[O] [Compound 24, 2-(5-oxyl-4,4,6,6-tetramethyl-4,6-dihydro-5H-thieno[2,3-c]pyrrol-2-yl)-1H-benzimidazole 4-carboxylic acid amide radical], the IC50 was 3400 nM.
CC1(C)NC(C)(C)c2sc(-c3nc4c(C(N)=O)cccc4[nH]3)cc21 [Compound 25, 2-(4,4,6,6-tetramethyl-4,6-dihydro-5H-thieno[2,3-c]pyrrol-2-yl)-1H-benzimidazole 4-carboxylic acid amide] gave an IC50 of 354 nM.

Same assay, conditions: PARP isolated from rat liver, 1 mM [3H]NAD+, 15 min incubation; read-out: PARP IC50
With CC1(C)C=C(c2nc3c(C(N)=O)cccc3[nH]2)C(C)(C)N1 [Compound 2, 2-(2,2,5,5-tetramethyl-2,5-dihydro-1H-pyrrol-3-yl)-1H-benzimidazole 4-carboxylic acid amide] the IC50 was 345 nM.
COC(=O)C1C(c2nc3c(C(N)=O)cccc3[nH]2)C(C)(C)NC1(C)C (centres unmarked) [Compound 4, 4-(4-carbamoyl-1H-benzimidazol-2-yl)-2,2,5,5-tetramethyl-pyrrolidine-3-carboxylic acid methyl ester] gave an IC50 of 216 nM.
For CC1(C)NC(C)(C)C(c2nc3c(C(N)=O)cccc3[nH]2)=C1Br [Compound 6, 2-(4-bromo-2,2,5,5-tetramethyl-2,5-dihydro-1H-pyrrol-3-yl)-1H-benzimidazole 4-carboxylic acid amide], the IC50 was 137 nM.
Work on CC1(C)NC(C)(C)C(c2nc3c(C(N)=O)cccc3[nH]2)=C1c1ccccc1 [Compound 8, 2-(4-phenyl-2,2,5,5-tetramethyl-2,5-dihydro-1H-pyrrol-3-yl)-1H-benzimidazole 4-carboxylic acid amide] yielded an IC50 of 310 nM.
CC1(C)C=C(c2ccc(-c3nc4c(C(N)=O)cccc4[nH]3)cc2)C(C)(C)N1 [Compound 12, 2-[4-(2,2,5,5-tetramethyl-2,5-dihydro-1H-pyrrol-3-yl)-phenyl]-1H-benzimidazole 4-carboxylic acid amide] gave an IC50 of 98 nM.
In the case of CC(=O)N1C(C)(C)C=C(c2nc3c(C(N)=O)cccc3[nH]2)C1(C)C [Compound 14, 2-(1-acetyl-2,2,5,5-tetramethyl-2,5-dihydro-1H-pyrrol-3-yl)-1H-benzimidazole 4-carboxylic acid amide], the IC50 is reported as 49 nM.
CON1C(C)(C)C=C(c2nc3c(C(N)=O)cccc3[nH]2)C1(C)C [Compound 15, 2-(1-methoxy-2,2,5,5-tetramethyl-2,5-dihydro-1H-pyrrol-3-yl)-1H-benzimidazole 4-carboxylic acid amide] showed an IC50 of 61 nM.
In the case of CC1(C)NC(C)(C)C(c2cccc3c2oc2ccccc23)=C1c1nc2c(C(N)=O)cccc2[nH]1 [Compound 17], the IC50 is reported as 8200 nM.
CC1(C)C=C(c2nc3c(C(N)=O)cccc3[nH]2)CC(C)(C)N1O [Compound 18, (1-hydroxy-2,2,6,6-tetramethyl-1,2,3,6-tetrahydro-pyridin-4-yl)-1H-benzimidazole 4-carboxylic acid amide] showed an IC50 of 26 nM.
Compound CC1(C)C=C(COc2ccc(-c3nc4c(C(N)=O)cccc4[nH]3)cc2)C(C)(C)N1 [Compound 21, 2-[4-(2,2,5,5-tetramethyl-2,5-dihydro-1H-pyrrol-3-yl-methoxy)-phenyl]-1H-benzimidazole 4-carboxylic acid amide] has an IC50 of 572 nM.

Tested on: not given
Assay: not given
Conditions: not given
CC1(C)C=C(CSc2nc3c(C(N)=O)cccc3[nH]2)C(C)(C)N1 (as salt: HCl) [Compound 27, 2-(2,2,5,5-tetramethyl-2,5-dihydro-1H-pyrrol-3-yl-methyl-sulphanyl)-1H-benzimidazole 4-carboxylic acid amide] gave a melting point of 209 to 211 °C.
Compound CC1(C)C=C(CSc2nc3c(C(N)=O)cccc3[nH]2)CC(C)(C)N1 [Compound 29, 2-(2,2,6,6-tetramethyl-1,2,3,6-tetrahydro-pyridin-4-yl-methylsulphanyl)-1H-benzimidazole 4-carboxylic acid amide] has a melting point of 245 to 246 °C.
